Series [1] concerns the target Serine/threonine-protein kinase pim-2 (Homo sapiens, UniProt Q9P1W9).
In series [2] the target is T1, Serine/threonine-protein kinase pim-1 (Homo sapiens, UniProt P11309).
Target sequence in this assay (P11309 whole entry): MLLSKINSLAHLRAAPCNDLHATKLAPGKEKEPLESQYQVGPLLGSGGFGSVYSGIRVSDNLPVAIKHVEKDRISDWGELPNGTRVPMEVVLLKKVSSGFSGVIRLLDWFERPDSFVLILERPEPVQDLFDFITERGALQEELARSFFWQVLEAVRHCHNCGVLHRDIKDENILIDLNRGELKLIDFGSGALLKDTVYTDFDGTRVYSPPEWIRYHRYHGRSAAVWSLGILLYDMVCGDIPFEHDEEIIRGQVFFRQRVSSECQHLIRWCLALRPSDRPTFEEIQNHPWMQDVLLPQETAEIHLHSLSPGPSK
Series [3] has as its target Cytochrome P450 2D6 (Homo sapiens, UniProt P10635). Kind of series: Inhibition of CYP2D6 in human liver microsomes. The format is ADME, Microsome.
Series [4] can be described thus: Solubility of the compound in phosphate buffered saline buffer at pH 7.4. The format is physicochemical.
A short description of series [5]: in vitro. Particulars: human, liver microsomes. Background: Liver microsomes are vesicles of endoplasmic reticulum, rich in cytochrome P450 enzymes.
Series [6] deals with Cytochrome P450 3A4 (Homo sapiens, UniProt P08684). The series is described as follows: Inhibition of CYP3A4 in human liver microsomes. The format is ADME, Microsome.
Cytochrome P450 3A4, sequence (P08684 whole entry): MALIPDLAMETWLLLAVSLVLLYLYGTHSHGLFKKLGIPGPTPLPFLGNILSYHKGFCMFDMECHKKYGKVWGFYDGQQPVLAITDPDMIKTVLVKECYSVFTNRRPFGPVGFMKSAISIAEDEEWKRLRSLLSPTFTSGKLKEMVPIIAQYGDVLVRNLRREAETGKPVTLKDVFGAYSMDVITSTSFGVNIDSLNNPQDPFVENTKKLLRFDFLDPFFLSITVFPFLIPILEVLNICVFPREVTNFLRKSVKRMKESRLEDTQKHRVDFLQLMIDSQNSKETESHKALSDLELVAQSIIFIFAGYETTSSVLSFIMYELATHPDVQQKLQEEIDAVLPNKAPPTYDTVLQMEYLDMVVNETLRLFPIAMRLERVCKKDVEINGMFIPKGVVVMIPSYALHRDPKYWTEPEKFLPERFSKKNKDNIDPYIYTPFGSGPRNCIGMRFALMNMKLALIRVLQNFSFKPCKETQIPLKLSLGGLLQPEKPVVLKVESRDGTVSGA
Series [7] addresses T2, Cytochrome P450 1A2 (Homo sapiens, UniProt P05177).
T2 sequence (P05177 whole entry): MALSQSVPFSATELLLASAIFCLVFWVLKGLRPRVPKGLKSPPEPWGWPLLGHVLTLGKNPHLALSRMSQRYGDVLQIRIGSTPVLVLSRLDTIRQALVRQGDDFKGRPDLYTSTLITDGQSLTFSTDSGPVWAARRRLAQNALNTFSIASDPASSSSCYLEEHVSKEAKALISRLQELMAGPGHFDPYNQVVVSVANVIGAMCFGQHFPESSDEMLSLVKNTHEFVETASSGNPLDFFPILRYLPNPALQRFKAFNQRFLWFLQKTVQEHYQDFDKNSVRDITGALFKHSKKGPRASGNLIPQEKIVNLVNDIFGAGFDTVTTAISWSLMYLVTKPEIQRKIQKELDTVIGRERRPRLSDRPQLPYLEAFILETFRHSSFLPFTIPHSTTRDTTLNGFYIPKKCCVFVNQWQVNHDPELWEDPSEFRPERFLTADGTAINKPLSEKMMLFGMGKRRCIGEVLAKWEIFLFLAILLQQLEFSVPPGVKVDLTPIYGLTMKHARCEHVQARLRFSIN
The series is described as follows: Inhibition of CYP1A2 in human liver microsomes. Type of series: ADME, Microsome.

The target in series [8] is Cytochrome P450 2C19 (Homo sapiens, UniProt P33261). The series is described as follows: Inhibition of CYP2C19 in human liver microsomes. Type of series: ADME, Microsome.
Cytochrome P450 2C19, sequence (P33261 whole entry): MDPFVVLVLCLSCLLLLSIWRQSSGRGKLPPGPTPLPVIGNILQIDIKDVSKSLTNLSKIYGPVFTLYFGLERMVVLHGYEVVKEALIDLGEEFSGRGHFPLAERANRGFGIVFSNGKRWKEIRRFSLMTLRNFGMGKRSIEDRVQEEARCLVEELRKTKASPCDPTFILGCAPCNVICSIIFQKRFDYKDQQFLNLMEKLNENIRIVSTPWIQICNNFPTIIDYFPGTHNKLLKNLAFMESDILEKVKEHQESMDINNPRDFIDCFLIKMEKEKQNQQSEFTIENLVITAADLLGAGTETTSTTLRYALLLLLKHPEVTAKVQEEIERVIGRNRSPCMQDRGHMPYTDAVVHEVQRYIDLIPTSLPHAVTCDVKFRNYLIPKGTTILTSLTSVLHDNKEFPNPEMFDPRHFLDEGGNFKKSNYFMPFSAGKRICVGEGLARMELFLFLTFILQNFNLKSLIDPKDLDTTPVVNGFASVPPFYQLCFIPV
The nature of series [9]: Intrinsic clearance in rat liver microsomes. Type of series: ADME, Microsome.
In series [10] the target is Cytochrome P450 2C9 (Homo sapiens, UniProt P11712). Kind of series: Inhibition of CYP2C9 in human liver microsomes. The format is ADME, Microsome.
Cytochrome P450 2C9, sequence (P11712 whole entry): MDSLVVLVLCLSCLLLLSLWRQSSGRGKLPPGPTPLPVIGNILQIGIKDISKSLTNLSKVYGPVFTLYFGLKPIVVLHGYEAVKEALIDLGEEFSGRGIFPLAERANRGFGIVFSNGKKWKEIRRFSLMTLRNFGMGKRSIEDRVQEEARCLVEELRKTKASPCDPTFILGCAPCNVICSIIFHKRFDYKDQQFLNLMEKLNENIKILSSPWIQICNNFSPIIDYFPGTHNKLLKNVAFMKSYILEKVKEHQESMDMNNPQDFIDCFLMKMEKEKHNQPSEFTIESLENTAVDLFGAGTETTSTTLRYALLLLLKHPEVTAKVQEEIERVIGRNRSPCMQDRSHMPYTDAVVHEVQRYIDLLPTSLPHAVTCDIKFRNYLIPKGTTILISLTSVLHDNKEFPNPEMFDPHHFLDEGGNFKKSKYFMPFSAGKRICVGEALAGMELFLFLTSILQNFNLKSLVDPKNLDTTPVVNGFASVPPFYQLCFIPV
Series [11] concerns the target T1, Serine/threonine-protein kinase pim-1. The note with it: 25 uM.
Target sequence in this assay (P11309 whole entry, looked up): as the sequence (P11309 whole entry) above

The text below walks through data of ChEMBL document CHEMBL1781944, “The discovery of novel benzofuran-2-carboxylic acids as potent Pim-1 inhibitors” (Bioorg Med Chem Lett, 2011).

What is called IC50 is the point on the concentration scale where inhibition reaches its midpoint. The solubility is the dissolved amount per volume that the medium holds. Usually microsomal CLint stands for the capacity of the preparation to metabolise the compound, expressed as a volume cleared per time. Lower therefore signals slow turnover.

Structures are written as SMILES. Values after ≈ are worked out from the molar mass of the structure shown. Active and inactive are the calls of the source. The calls are words filed in the database; no cut-off is given here.

Cytochrome P450 2D6, sequence (P10635 whole entry): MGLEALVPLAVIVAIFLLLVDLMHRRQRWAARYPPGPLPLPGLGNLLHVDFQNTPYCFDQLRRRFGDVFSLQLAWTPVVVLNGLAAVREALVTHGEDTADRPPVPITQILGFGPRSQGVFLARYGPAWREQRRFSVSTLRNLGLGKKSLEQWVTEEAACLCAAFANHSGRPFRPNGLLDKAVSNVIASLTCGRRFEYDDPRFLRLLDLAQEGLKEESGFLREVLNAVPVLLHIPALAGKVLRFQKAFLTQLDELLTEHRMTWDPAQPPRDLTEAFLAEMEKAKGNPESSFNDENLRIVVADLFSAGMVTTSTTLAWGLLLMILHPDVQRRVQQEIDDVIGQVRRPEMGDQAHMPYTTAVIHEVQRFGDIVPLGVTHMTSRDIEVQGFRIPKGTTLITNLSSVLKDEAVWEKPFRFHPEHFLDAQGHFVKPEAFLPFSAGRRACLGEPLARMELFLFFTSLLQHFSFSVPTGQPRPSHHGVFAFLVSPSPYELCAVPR
Serine/threonine-protein kinase pim-2, sequence (Q9P1W9 whole entry): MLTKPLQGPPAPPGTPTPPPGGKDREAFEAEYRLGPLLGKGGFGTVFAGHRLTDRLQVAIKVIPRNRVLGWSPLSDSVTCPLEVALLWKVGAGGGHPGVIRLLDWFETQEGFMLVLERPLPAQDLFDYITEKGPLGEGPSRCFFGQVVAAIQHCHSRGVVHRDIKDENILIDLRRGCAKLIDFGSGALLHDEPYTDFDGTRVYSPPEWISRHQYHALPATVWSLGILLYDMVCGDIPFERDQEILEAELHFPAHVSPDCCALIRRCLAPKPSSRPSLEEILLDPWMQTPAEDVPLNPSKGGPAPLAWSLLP

Regarding `O=C(O)c1cc2cc(Br)cc(OCCC3CCNCC3)c2o1`, the IC50 in series [1] came out at 350 nM; in series [2], 51 nM.
For `O=C(O)c1cc2cc(Br)cc(OCc3ccncc3)c2o1` the same measures were 12500 nM and 4900 nM.
For `N[C@H]1CC[C@@H](Nc2cncc(-c3ccc4oc(C(=O)O)cc4c3)n2)CC1` the same measures were 110 nM and 200 nM.
For `O=C(O)c1cc2cc(-c3cncc(NC4CNC4)n3)ccc2o1`, the IC50 came out at 100 nM in series [1] and 450 nM in series [2].
As to `O=C(CC1CCNCC1)Nc1cc(Br)cc2cc(C(=O)O)oc12`, the IC50 in [1] is 340 nM; in series [2], 55 nM.
For `O=C(O)c1cc2cc(-c3cnn(C4CCNCC4)c3)ccc2o1` the same measures were 5800 nM and 6000 nM.
As for `O=C(O)c1cc2ccccc2o1`, in series [2], the IC50 was determined as 119000 nM.
For `NC[C@H]1CC[C@H](Nc2cncc(-c3ccc4oc(C(=O)O)cc4c3)n2)CC1`, the IC50 was found to be 21 nM in series [1] and 53 nM in [2].
For `O=C(O)c1cc2cc(-c3cnccn3)ccc2o1` the same measures were 11900 nM and 7400 nM.
On to `O=C(O)c1cc2cc(Br)cc(NC(=O)C3CCNCC3)c2o1`, for which the figures for the IC50 in [1] and in [2] were 260 nM and 150 nM, respectively.
On to `O=C(O)c1cc2cc(Br)cc(OCC3CCCNC3)c2o1` (configuration not stated), for which the values for the IC50 in [1] and in series [2] were 350 nM and 71 nM, respectively.
Turning to `O=C(O)c1cc2cc(Br)cc(C(=O)NC3CCNCC3)c2o1`, the IC50 in [1] is 7000 nM; in [2], 980 nM.
`O=C(O)c1cc2cc(C(F)(F)F)ccc2o1`: the IC50 in series [1] was determined as 13500 nM; in [2], 5300 nM.
For `O=C(O)c1cc2cc(Br)cc(OCCc3ccncc3)c2o1` the same measures were 21100 nM and 4500 nM.
With `N[C@H]1CC[C@H](Nc2cc(Br)cc3cc(C(=O)O)oc23)CC1`, the IC50 in series [1] was 66 nM; in series [3], over 10 µM; in [6], over 10 µM; in [7], over 10 µM; in series [8], over 10 µM; in [10], over 10 µM. In addition, in series [4], the solubility was over 58 µg/mL. Moreover, the figures for the microsomal CLint in series [5] and in [9] were 11.2 µL/min/mg and 8.1 µL/min/mg, respectively.
As for `O=C(O)c1cc2cc(-c3cccnc3)ccc2o1`, the IC50 in [1] amounted to 7100 nM; in series [2], 7800 nM.
With `COc1cc(Br)cc2cc(C#N)oc12`, in [11], the inhibition result is “inactive”.
As to `O=C(O)c1cc2cc(Br)cc(N[C@H]3CC[C@@H](O)CC3)c2o1`, the IC50 in series [1] came out at 6800 nM; in series [2], 2300 nM.
Compound `N[C@H]1CC[C@H](Nc2cncc(-c3ccc4oc(C(=O)O)cc4c3)n2)CC1` showed an IC50 in series [1] of 54 nM.
For the compound `NCCCCNc1ccnc(-c2ccc3oc(C(=O)O)cc3c2)n1`, the results for the IC50 in [1] and in [2] were 1200 nM and 1900 nM, respectively.
Take `O=C(O)c1cc2cc(Br)cc(NCC3CCNCC3)c2o1`: the IC50 was 190 nM in series [1]; over 10 µM in series [3]; 20 nM in [2]; over 10 µM in series [6]; over 10 µM in series [7]; over 10 µM in series [8]. In addition, the IC50 in [10] is over 10 µM. The solubility in [4] was over 58 µg/mL. Moreover, the microsomal CLint was found to be 9.9 µL/min/mg in series [5] and 14.1 µL/min/mg in series [9].
Take `O=C(O)c1cc2cc(Br)cc(C(=O)NCC3CCNCC3)c2o1`: the IC50 came to 1300 nM in [1] and 2700 nM in series [2].
For `NCCCCNc1nccc(-c2ccc3oc(C(=O)O)cc3c2)n1`, the IC50 is 590 nM in series [1] and 460 nM in series [2].
For `O=C(O)c1cc2cc(Br)cc(OCC(=O)N3CCNCC3)c2o1` the same measures were 1300 nM and 220 nM.
Take `O=C(O)c1cc2cc(-c3cncc(NC4CCNCC4)n3)ccc2o1`: the IC50 came to 150 nM in series [1] and 210 nM in series [2].
Regarding `O=C(O)c1cc2cc(-c3cncc(NCC4CCNCC4)n3)ccc2o1`, the IC50 in series [1] turned out to be 160 nM; in series [2], 380 nM.
As for `O=C(O)c1cc2cc(Br)cc(OCC3CCNCC3)c2o1`, the IC50 in [1] amounted to 250 nM; in [2], 60 nM.
For `Cn1cc(-c2ccc3oc(C(=O)O)cc3c2)cn1` the same measures were 2900 nM and 5400 nM.
For `O=C(O)c1cc2cc(Br)cc(N[C@H]3CC[C@H](O)CC3)c2o1` the same measures were 6100 nM and 2400 nM.
For `O=C(O)c1cc2cc(Br)cc(NCCC3CCNCC3)c2o1` the same measures were 540 nM and 40 nM.
Compound `O=C(O)c1cc2cc(OC(F)(F)F)ccc2o1` showed an IC50 in series [2] of 6100 nM.
`N[C@H]1CC[C@@H](Nc2cc(Br)cc3cc(C(=O)O)oc23)CC1`: the IC50 is 4 nM in [1]; over 10 µM in series [3]; over 10 µM in series [6]; over 10 µM in series [7]; over 10 µM in series [8]; over 10 µM in [10]. The compound also gave a solubility in series [4] of 20.1 µg/mL (≈ 56.9 µM). Further, the figures for the microsomal CLint in [5] and in series [9] were 10.2 µL/min/mg and 10 µL/min/mg, respectively.
